The values that follow come from publication PMC4109680, “Identification and Preclinical Pharmacology of the γ-Secretase Modulator BMS-869780” (International Journal of Alzheimer's Disease, 2014).

Data set [1] is described as follows: Pharmacokinetics in male Sprague-Dawley rats. The conditions noted are these: plasma, Rat. Type of data set: in vivo. On the procedure: Male Sprague-Dawley (SD) rats (300–350 g) were fasted overnight, and three per group received BMS-869780 either as an intravenous (IV) infusion in PEG400 : ethanol (90 : 10 w/w) at 1 mg/kg over 5 min via the jugular vein or as nanosuspension (d50 ca. 300 nm) by oral gavage at 5 mg/kg in Povidone K-30 : sodium lauryl sulfate : water (2.5 : 0.12 : 97.38 w/w/w/w). For the IV infusion, serial blood samples were obtained before dose and at 0.17, 0.25, 0.5, 0.75, 1, 2, 4, 6, 8, and 24 hours after dose. For the PO nanosuspension, serial blood samples were obtained before dose and at 0.25, 0.5, 0.75, 1, 2, 4, 6, 8, and 24 h after dose. Blood samples, ~0.3 mL, for all studies were collected from the jugular vein into K3EDTA-containing tubes and then centrifuged at 4°C (1500–2000 ×g) to obtain plasma, which was stored at −20°C until analysis by LC/MS/MS. In male beagle dogs, the PK of BMS-869780 was evaluated in a cross-over study design with a one-week washout between treatments. Dogs were fasted overnight, and three animals (9.5 to 10.7 kg) received BMS-869780 by IV infusion at 1 mg/kg over 5 minutes in PEG400 : ethanol (90 : 10 w/w) or as nanosuspension (d50 ca. 300 nm) by oral gavage at 5 mg/kg in Povidone K-30 : sodium lauryl sulfate : water (2.5 : 0.12 : 97.38 w/w/w/w). Serial blood samples (~0.3 mL) were collected from a saphenous vein into K3EDTA-containing tubes before dose and at 0.083, 0.17, 0.25, 0.5, 0.75, 1, 2, 4, 6, 8, and 24 hours after IV dose, and 0.25, 0.5, 0.75, 1, 2, 4, 6, 8, and 24 hours after oral dose, followed by centrifugation at 4°C (1500 to 2000 ×g) to obtain plasma. Samples were stored at −20°C until analysis of BMS-869780 levels by LC-MS/MS. In male cynomolgus monkeys, the PK of BMS-869780 was evaluated in a cross-over study design with a 1-week washout between treatments. Following an overnight fast, three animals (4.5 to 8 kg) received BMS-869780 by IV infusion via a femoral vein at 1 mg/kg over 10 minutes in PEG400 : ethanol (90 : 10), or by oral gavage at 5 mg/kg in Povidone K-30 : sodium lauryl sulfate : water (2.5 : 0.12 : 97.38). Serial blood samples, ~0.3 mL, were collected from a femoral artery into K3EDTA-containing tubes before dose and at 0.083, 0.17, 0.25, 0.5, 0.75, 1, 2, 4, 6, 8, and 24 hours after IV dose, and 0.25, 0.5, 0.75, 1, 2, 4, 6, 8, and 24 hours after oral dose, followed by centrifugation at 4°C (1500 to 2000 ×g) to obtain plasma. Samples were stored at −20°C until analysis of BMS-869780 levels by LC-MS/MS. The PK parameters of BMS-869780 were obtained by noncompartmental analysis of plasma concentration versus time data (WinNonlin software, Version 5.0; Pharsight Corporation, Mountain View, CA). The peak concentration (C max) and time for C max (T max) were recorded directly from experimental observations. The area under the curve from time zero to the last sampling time (AUC^0-T) and the area under the curve from time zero to infinity (AUC^INF) were calculated using a combination of linear and log trapezoidal summations. The total plasma clearance (CLTp), steady-state volume of distribution (Vss), apparent elimination half-life (T 1/2), and mean residence time (MRT) were estimated after IV administration. The absolute oral bioavailability (F) was estimated as the ratio of dose-normalized AUC values following oral and IV doses.
Figure 9 Pharmacokinetics (PK) of BMS-869780 across species for prediction of human PK. Rats, dogs, and cynomolgus monkeys were dosed with BMS-869780 intravenously (IV ▲) at 1 mg/kg or oral nanosuspension (PO ●) at 5 mg/kg. Plasma concentrations of BMS-869780 were determined for up to 24 hours after the dose. (a) Rat. (b) Dog. (c) Cynomolgus monkey.

The next data set deals with CYP3A4 mRNA. As to the kind of experiment: CYP3A4 mRNA expression in primary human hepatocytes. Conditions: two donors, relative to rifampicin 10 μM. In kind it is cell-based. On the procedure:
Figure 10 BMS-869780 caused PXR activation in vitro and lipidosis in rat liver. (a) PXR activation in the presence of BMS-869780 was evaluated in HepG2 cell cultures using a luciferase transcriptional reporter construct (●), or by assay of CYP3A4 mRNA levels in primary human hepatocyte (PHH) cultures from two individual donors (▲ and ▼). Activation in both assays is expressed as % relative to activation in the presence of rifampicin, 10 μM, in parallel cultures. (b) Liver section from vehicle-dosed rats. (c) Liver section from rats given 4 daily doses of BMS-869780 at 100 mg/kg.

`COc1cc(Nc2nc3n(n2)CCCC[C@H]3c2ccc(F)cc2)ccc1-n1cnc(Cl)c1` [BMS-869780]: in data set [1] (IV 1 mg/kg), the AUC(0-t) turned out to be 1.48 ± 0.121 µM·h, the mean residence time (MRT) came out at 1 ± 0.2 h, the clearance was determined as 24.3 ± 1.7 mL/min/kg and the half-life is 2 ± 0.3 h. Also, the Vd in data set [1] (IV 1 mg/kg, read-out: Vss) was determined as 1.8 ± 0.5 L/kg. For the same compound, in data set [1] (PO suspension 5 mg/kg), the AUC(0-t) is 4 ± 0.964 µM·h, the Cmax was determined as 674 ± 227 nM, the Tmax is 3.3 ± 1.2 h and the bioavailability came to 54%. Besides, the “concentrations at which CYP3A4 mRNA transcription was activated” value in the data set on CYP3A4 mRNA is at least 300 nM.
